Results on four substances are retold here after publication PMC2972358 (Journal of molecular biology, 2010).

Like-named read-outs stand apart in the source and are kept apart here. Bridges are numbered along the chain shown (N, C = ends). Where no end group is shown, it is not given here.

The target in test [1] is T1, human MC1R (Homo sapiens, UniProt Q01726). The note with it: at high concentration, printed in the Ki column, cited from earlier work.
Test [2] deals with T1, human MC1R. Kind of test: Eu-NDP-MSH displacement binding assay, MC1R.
Test [3] has as its target human MC4R (Homo sapiens, UniProt P32245). Kind of test: Eu-NDP-MSH displacement binding assay, MC4R.
Test [4] addresses human melanocortin receptor MC1R (Homo sapiens, UniProt Q01726). The format is cell-based. The note with it: absence of NDP-MSH; basal response taken as zero; HEK-293 cells with human MC1R.

T1 sequence (Q01726 whole entry): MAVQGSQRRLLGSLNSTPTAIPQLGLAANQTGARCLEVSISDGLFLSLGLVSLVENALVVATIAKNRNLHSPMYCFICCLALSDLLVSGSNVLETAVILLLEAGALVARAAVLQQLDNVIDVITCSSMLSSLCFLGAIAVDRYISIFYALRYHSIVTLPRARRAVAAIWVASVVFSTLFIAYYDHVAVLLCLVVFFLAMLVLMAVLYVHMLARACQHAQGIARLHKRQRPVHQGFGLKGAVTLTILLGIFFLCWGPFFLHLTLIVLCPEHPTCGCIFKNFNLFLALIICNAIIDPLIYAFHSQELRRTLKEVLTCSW
Chain of human MC4R (P32245 whole entry): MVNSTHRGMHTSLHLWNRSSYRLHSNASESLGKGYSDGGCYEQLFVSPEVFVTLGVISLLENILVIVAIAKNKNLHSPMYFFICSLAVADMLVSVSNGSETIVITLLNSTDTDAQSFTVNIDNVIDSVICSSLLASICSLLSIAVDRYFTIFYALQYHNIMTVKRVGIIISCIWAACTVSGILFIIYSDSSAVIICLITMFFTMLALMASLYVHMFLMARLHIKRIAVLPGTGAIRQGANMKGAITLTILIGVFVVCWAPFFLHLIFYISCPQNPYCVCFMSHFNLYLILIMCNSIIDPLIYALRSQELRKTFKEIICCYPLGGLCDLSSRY
Chain of human melanocortin receptor MC1R (Q01726 whole entry): as the sequence (Q01726 whole entry) above

For “CVRLHESCLGQQVPCCDPCATCYCRFFNAFCYCRKLGTAMNPCSRT (bicyclic or more) [AgRP [chi(−1 −1 −1)], reference compound]”, the “MC1R suppression of NDP-MSH binding (partial displacement of agonist)” value in test [1] and in test [1] (listed as chi(−1 −1 −1)) was 47% each time.

As a reminder, the Ki is a dissociation constant, usually derived from enzyme kinetics or from competition with a known ligand. Lower therefore signals higher affinity. Consider “Ac-KKVVRPRTPLSAPCVATRNSCKPPAPACCDPCASCYCRFFNAFCYCRVLSLNC-NH2 (disulfide 14-29, 21-35, 28-46, 32-53, 37-44) [chi(+1 −1 +1)]”, for which the Ki in test [2] was determined as 4.9 ± 1.1 nM; in test [3] it was 2.1 ± 0.3 nM. Also, in test [2] (fold difference of MC1R Ki relative to ASIP [chi(+1 +1 +1)]), the MC1R fold diff. is on record as 7.0. For the same substance, the MC4R fold diff. in test [3] (fold difference of MC4R Ki relative to ASIP [chi(+1 +1 +1)]) was determined as 1.6.

“CVRLHESCLGQQVPCCDPAATCYCRFFRSACYCR (also: bicyclic or more (positions not given here)) [chi(−1 +1 0)]”: in test [4], the “Effect on cAMP production at MC1R (functional class)” value is listed as “agonists”.

“CVRLHESCLGQQVPCCDPAATCYCRFFNAFCYCR (also: bicyclic or more (positions not given here)) [chi(−1 −1 0)]”: the “MC1R suppression of NDP-MSH binding (partial displacement of agonist)” value in test [1] is given as 26%.
